Patent US20160025704A1, “METHODS FOR IDENTIFYING NEUROPROTECTIVE PKC ACTIVATORS” (priority 2013, published 2016)

What was measured:
[1] = Bryostatin levels in plasma and brain after intravenous injection; assay type: in vivo, mice
Experimental: Measurements of bryostatin were analyzed at different time points subsequent to administration of a high dose of bryostatin (114 μg/m2). […] The plasma/brain ratio can be greater than 30.
(§1) Protocol: Male C57BL/6M mice (15-20 g, Charles River) were acclimatized for 7-8 days in a non-enriched environment, three mice per cage. Bryostatin (Tocris) was dissolved in DMSO, diluted into 0.9% saline, and injected into the tail vein at doses of 10 and 15 μg/m2. After a fixed period, the mice were anesthetized with CO2 and the brain was frozen on dry ice. Blood was mixed with 0.2 ml 1 mM EDTA in PBS, centrifuged at 100 g for 30 min, and plasma was frozen on dry ice. In some experiments, blood lymphocyte fractions were collected using Ficoll-Paque Plus reagent using the procedure recommended by the manufacturer. All animal procedures were approved by the institutional IACUC.
(§2) Bryostatin was injected into the tail vein of C57BL/6N mice at 10 and 15 μg/m2 (equivalent to 3.50 and 5.25 μg/kg), and brain PKC-ε concentration was measured using Western blots. Brain PKC-ε activation was biphasic, peaking at 0.5 h and slowly declined toward resting levels, even though bryostatin levels continued to increase. This is consistent with the short-lived activation of PKC established previously. […] The bryostatin concentration at 0.5 h was 0.029 nM.

cerebral ischemia rats = test: Retention of spatial learning and memory after cerebral ischemia (training before ischemia); assay type: in vivo; settings: 15 μg/m^2 tail vein, 2 doses/week for 10 doses; second probe test 2 weeks after last dose (FIG. 22)
Experimental: Protocol: An initial evaluation of the test rats was undertaken to observe their spatial learning (2 trials/day for 6 days) and memory (a probe test of 1 min, 24 hours after the last trial). Cerebral ischemia was induced 1 day after the probe test, followed by bryostatin-1 (15 μg/m^2) administration through a tail vein (2 doses/week, for 10 doses), starting 24 hours after the end of the ischemic (2-VO)/hypoxic event. A second probe test was performed 2 weeks after the last bryostatin-1 dose. Results are shown in A for the spatial water maze performance of the rats over training trials (2 trials/day for 6 days) before the ischemia/treatment (means±SEM.; trials: F11,383=40.483, P<0.001; groups: F3,383=0.315, P>0.05). Results of the probe test after the training trials before the ischemia and/or treatment are shown in B-E (Quadrant 4 was the target quadrant). Results are shown for the target quadrant ratios before (pre-Isch) and after (post-Isch) the ischemia and/or treatment in F. Results are shown in G for the latency of the first crossing the target location before (pre-Isch) and after (post-Isch) the ischemia and/or treatment. There were eight rats/group (Bry—bryostatin-1; Isch.—cerebral ischemia) (*, P<0.05. NS: P>0.05).

Tg2576 mice = test: Dendritic spines and synapses in hippocampal CA1 area of Tg2576 mice; assay type: in vivo
[2] = postischemic/hypoxic treatment; Sun and Alkon 2008; cited from earlier work
PKC-α = biological target: T1, PKC-α (Mus musculus, UniProt P20444); test: PKC-α translocation by bryostatin in mouse brain (Western blot); assay type: in vivo; settings: 30 and 120 minutes after administration
T1 construct: The effect of bryostatin on brain PKC translocation; from tissue; host or cells: brain of C57BL/6 mice

PKC-ε = biological target: T2, PKC-ε (Mus musculus, UniProt P16054); test: PKC-ε activation and translocation by bryostatin in mouse brain (Western blot); assay type: in vivo
T2 construct: from tissue; host or cells: brain of C57BL/6 mice
T2 sequence (P16054 1-737): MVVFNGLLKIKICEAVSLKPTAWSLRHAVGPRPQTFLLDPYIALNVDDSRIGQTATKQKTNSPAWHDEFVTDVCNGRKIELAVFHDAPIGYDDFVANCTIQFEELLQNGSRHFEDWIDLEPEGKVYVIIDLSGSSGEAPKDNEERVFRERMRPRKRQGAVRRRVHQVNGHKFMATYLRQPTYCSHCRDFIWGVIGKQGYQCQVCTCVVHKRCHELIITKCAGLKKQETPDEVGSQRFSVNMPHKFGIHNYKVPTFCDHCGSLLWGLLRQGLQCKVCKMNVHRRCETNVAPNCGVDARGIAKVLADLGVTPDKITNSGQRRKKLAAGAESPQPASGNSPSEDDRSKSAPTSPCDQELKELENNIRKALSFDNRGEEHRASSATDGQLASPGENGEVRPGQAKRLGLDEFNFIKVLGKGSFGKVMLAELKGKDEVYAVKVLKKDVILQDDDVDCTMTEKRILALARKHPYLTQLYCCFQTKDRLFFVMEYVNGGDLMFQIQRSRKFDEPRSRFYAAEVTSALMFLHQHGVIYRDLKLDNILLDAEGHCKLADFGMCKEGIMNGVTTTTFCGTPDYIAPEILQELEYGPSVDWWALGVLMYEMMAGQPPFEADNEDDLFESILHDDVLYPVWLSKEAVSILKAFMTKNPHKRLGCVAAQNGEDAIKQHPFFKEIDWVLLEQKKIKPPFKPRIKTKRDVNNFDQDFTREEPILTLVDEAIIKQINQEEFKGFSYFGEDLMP
Experimental: as §1
Activation and translocation of PKC-ε were measured by Western blotting after subcellular fractionation into cytosol and particulate fractions. Homogenates were centrifuged at 100,000×g for 20 min and cytosolic and particulate fractions were separated on 4-20% Tris-glycine SDS polyacrylamide gels, blotted onto nitrocellulose, and probed with isozyme specific antibodies. The blots were photographed in a GE ImageQuant at 16 bits/pixel and analyzed by vertical strip densitometry using Imal Unix software.
as §2
The results of a dose dependence study of activation of PKCα and PKCε translocation by bryostatin, are shown below in FIG. 4 (measured 30 minutes after administration), and FIG. 5 (measured 120 minutes after administration). The effect of bryostatin on brain PKC translocation (an indicator of enzymatic activation) was also biphasic, with maximal effects observed at doses between 5 and 10 μg/m2.

[3] = 30 μg/kg intraperitoneal twice a week from 2 months old, analysis at five months

CCC/C=C/C=C/C(=O)O[C@H]1/C(=C/C(=O)OC)C[C@H]2C[C@H]([C@@H](C)O)OC(=O)C[C@H](O)C[C@@H]3C[C@H](OC(C)=O)C(C)(C)[C@](O)(C[C@@H]4C/C(=C/C(=O)OC)C[C@H](/C=C/C(C)(C)[C@]1(O)O2)O4)O3 [Bryostatin, bryostatin-1]
brain bryostatin relative to PKC downregulation ([1]; FIG. 2, brain versus plasma): below PKC downregulation
plasma/brain ratio ([1]; single intravenous injection, 114 μg/m2, mice): greater than 30
half-life in the brain as compared to plasma ([1]; single intravenous injection, high dose 114 μg/m2, mice): extremely long half-life in the brain as compared to in plasma
bryostatin concentration at 0.5 h ([1]; tail vein 10 and 15 μg/m2, C57BL/6N mice, 0.5 h): 0.029 nM
learning experience and memory after cerebral ischemia (cerebral ischemia rats): rescues learning experience and memory
mushroom spine-shape dendritic spines (Tg2576 mice; [3]): prevented decreases in mushroom spine-shape dendritic spines
synapses (electron microscopy) (Tg2576 mice; [3]): prevented decreases
loss of postsynaptic dendritic spines and synapses in the hippocampal CA1 area (Tg2576 mice; Tg2576 mice at 5 months old (FIG. 19)): protects against the loss of postsynaptic dendritic spines and synapses
ischemia-induced deficits in synaptogenesis, neurotrophic activity, and spatial learning and memory [2]: effectively rescued ischemia-induced deficits in synaptogenesis, neurotrophic activity, and spatial learning and memory
PKC-α translocation in mouse brain (PKC-α): translocation was only observed by PKC-ε
PKC-ε translocation in mouse brain (PKC-ε; 30 and 120 minutes after administration): translocation was only observed by PKC-ε
downregulation of brain PKC-ε (PKC-ε; tail vein 10 and 15 μg/m2, C57BL/6N mice): No downregulation below starting values was observed
time of peak brain PKC-ε activation (PKC-ε; tail vein 10 and 15 μg/m2, C57BL/6N mice, biphasic): 0.5 h
